Tests used:
Assay in all cases: Bliss excess, mean over the matrix (fraction); higher = more synergy
[1] = system: SK-MM-2 (Plasma Cell Myeloma)
Method in brief: (§1)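 After 24 hours at 37°C and 5% CO2 in 1536-well plates, cells in DMEM/F12 or RPMI plus 10% FBS received two-drug dose matrices for 72 hours. Viability came from CellTiter-Glo 2.0 luminescence and was scaled as inhibition, anchored at 0 by vehicle wells and at 1 by blank wells. Combination Emax is taken as the second-highest inhibition in the matrix, and Bliss excess as the observed combination effect less EA + EB − EA·EB, with EA and EB the single-agent effects.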

HuO-3N1 (Osteosarcoma) = system: HuO-3N1 (Osteosarcoma)
Method in brief: as §1

[2] = system: RL95-2 (Endometrial Carcinoma)
Method in brief: as §1

[3] = system: NKM-1 (Acute Myeloid Leukemia)
Method in brief: as §1

786-0 (Kidney Carcinoma) = system: 786-0 (Kidney Carcinoma)
Method in brief: as §1

[4] = system: SW684 (Other Solid Carcinomas)
Method in brief: as §1

[5] = system: JHH-1 (Hepatocellular Carcinoma)
Method in brief: as §1

[6] = system: FLO-1 (Esophageal Adenocarcinoma)
Method in brief: as §1

[7] = system: Caov-3 (Ovarian Carcinoma)
Method in brief: as §1

CHL-1 (Melanoma) = system: CHL-1 (Melanoma)
Method in brief: as §1

[8] = system: NCI-H196 (Small Cell Lung Carcinoma)
Method in brief: as §1

[9] = system: RMG-I (Ovarian Carcinoma)
Method in brief: as §1

[10] = system: Calu-6 (Non-Small Cell Lung Carcinoma)
Method in brief: as §1

[11] = system: NCI-H1623 (Lung Adenocarcinoma)
Method in brief: as §1

[12] = system: NCI-H1563 (Lung Adenocarcinoma)
Method in brief: as §1

[13] = system: PANC-02-03 (Pancreatic Carcinoma)
Method in brief: as §1

[14] = system: OCI-AML5 (Acute Myeloid Leukemia)
Method in brief: as §1

[15] = system: CML-T1 (Chronic Myelogenous Leukemia)
Method in brief: as §1

[16] = system: LOUCY (T-Lymphoblastic Leukemia)
Method in brief: as §1

[17] = system: LAMA-84 (Chronic Myelogenous Leukemia)
Method in brief: as §1

Compound | Bliss excess [1] | Bliss excess (HuO-3N1 (Osteosarcoma)) | Bliss excess [2] | Bliss excess [3] | Bliss excess (786-0 (Kidney Carcinoma)) | Bliss excess [4] | Bliss excess [5] | Bliss excess [6] | Bliss excess [7] | Bliss excess (CHL-1 (Melanoma)) | Bliss excess [8] | Bliss excess [9] | Bliss excess [10] | Bliss excess [11] | Bliss excess [12] | Bliss excess [13] | Bliss excess [14] | Bliss excess [15] | Bliss excess [16] | Bliss excess [17]
CCc1c2c(nc3ccc(O)cc13)-c1cc3c(c(=O)n1C2)COC(=O)[C@]3(O)CC [SN-38] + CN(C)CCCOc1ccc(-c2ccc3ncc4c(c3c2)n(C2CCOCC2)c(=O)n4C)cn1 [AZD0156] (first compound max 0.3 µM, 7x7, partner max 1 µM) | 0.0076 | -0.0592 | 0.0502 | 0.033 | 0.0032 | -0.0457 | -0.018 | 0.0218 | 0.0175 | 0.0336 | -0.049 | 0.018 | 0.0491 | -0.0496 | -0.0605 | -0.007 | -0.0231 | 0.0241 | 0.0406 | 0.08
Cc1cc2ncnn2cc1Nc1ncc2c(n1)n(C1CCOCC1)c(=O)n2C [AZD7648] + O=C(c1cc(Cc2n[nH]c(=O)c3ccccc23)ccc1F)N1CCN(C(=O)C2CC2)CC1 [Olaparib] (first compound max 10 µM, 7x7, partner max 10 µM) | -0.0204 | -0.031 | -0.0444 | 0.0104 | -0.0162 | -0.0452 | -0.0621 | -0.0259 | -0.0336 | -0.0266 | -0.0435 | -0.0685 | -0.0391 | -0.0486 | -0.0487 | -0.0411 | 0.0077 | -0.0483 | -0.0388 | -0.0044
CN(CCO)CC[C@H](CSc1ccccc1)Nc1ccc(S(=O)(=O)NC(=O)c2ccc(N3CCC([C@@H](O)c4ccccc4-c4ccc(Cl)cc4)CC3)cc2)cc1S(=O)(=O)C(F)(F)F [AZD4320] + C1CN(CCC1(C(=O)N[C@@H](CCO)C2=CC=C(C=C2)Cl)N)C3=NC=NC4=C3C=CN4 [Capivasertib] (first compound max 1 µM, 7x7, partner max 3 µM) | -0.0077 | -0.0109 | -0.0192 | 0.0099 | -0.0318 | -0.0619 | -0.149 | -0.039 | -0.0309 | -0.028 | -0.0297 | -0.0527 | 0.0004 | -0.002 | -0.0423 | -0.0617 | 0.0104 | 0.0023 | 0.0753 | -0.0418
CN(CCO)CC[C@H](CSc1ccccc1)Nc1ccc(S(=O)(=O)NC(=O)c2ccc(N3CCC([C@@H](O)c4ccccc4-c4ccc(Cl)cc4)CC3)cc2)cc1S(=O)(=O)C(F)(F)F [AZD4320] + C[C@@H]1COCCN1C2=NC(=NC(=C2)C3(CC3)[S@](=N)(=O)C)C4=C5C=CNC5=NC=C4 [AZD6738] (first compound max 1 µM, 7x7, partner max 10 µM) | -0.0126 | 0.0154 | -0.0163 | 0.0067 | -0.0263 | -0.0548 | -0.0234 | -0.0574 | -0.0186 | 0.0607 | -0.0112 | -0.13 | -0.0258 | -0.0101 | 0.0051 | -0.0584 | 0.0284 | 0.0149 | -0.0092 | -0.0093

From the supplement of paper PMC11061612
